Test results reported in US12139520B2 (priority 2020, dated 2024).
pEC50: −log10 of the molar value. Bridge positions count the residues as written; N and C are the ends. Square brackets hold non-standard residues; d marks the D form. Peptide text beside a SMILES is read from it. Hyp = O=C(O)[C@@H]1C[C@@H](O)CN1; Cit = NC(=O)NCCC[C@H](N)C(=O)O

Columns and labels:
hAMY3 receptor = target: T1, hAMY3 receptor (Homo sapiens, UniProt O60896+P30988); test: cAMP assay for in vitro receptor activation, hAMY3-R; assay type: cell-based; conditions: cAMP assay, hAMY3 receptor; read-out: hAMY3R EC50
T1 sequence (P30988 25-474): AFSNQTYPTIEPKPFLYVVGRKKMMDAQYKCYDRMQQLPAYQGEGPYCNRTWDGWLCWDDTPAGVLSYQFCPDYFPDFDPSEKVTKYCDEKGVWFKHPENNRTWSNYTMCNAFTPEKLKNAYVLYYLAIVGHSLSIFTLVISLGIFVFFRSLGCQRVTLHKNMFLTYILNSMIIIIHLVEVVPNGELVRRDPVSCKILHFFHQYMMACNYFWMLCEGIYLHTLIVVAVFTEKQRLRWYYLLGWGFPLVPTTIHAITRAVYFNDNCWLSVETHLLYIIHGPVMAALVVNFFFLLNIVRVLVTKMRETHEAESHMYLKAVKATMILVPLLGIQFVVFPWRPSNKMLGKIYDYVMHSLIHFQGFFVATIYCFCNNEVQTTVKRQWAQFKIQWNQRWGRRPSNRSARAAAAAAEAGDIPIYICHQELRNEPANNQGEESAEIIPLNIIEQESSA
T1 sequence (O60896 24-148 partner): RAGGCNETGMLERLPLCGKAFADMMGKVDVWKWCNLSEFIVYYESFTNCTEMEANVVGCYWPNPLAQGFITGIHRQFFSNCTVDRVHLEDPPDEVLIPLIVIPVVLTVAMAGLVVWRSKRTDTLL
Method in brief: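 Stable hAMY3 cells; DPBS + 0.05% casein + 0.5 mM IBMX; graded compound doses, 30 min, RT; cAMP via HTRF Gs kit, TR-FRET read at 1 h.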

hAM1 receptor = hAM1 receptor (Homo sapiens, UniProt O60895+Q16602); test: cAMP assay for in vitro receptor activation, hAM1-R; assay type: cell-based; conditions: cAMP assay, hAM1 receptor; read-out: hAM1R EC50
Method in brief: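 Monoclonal stable hAM1-overexpressing cells, thawed from frozen stock; 8000 cells/well in DPBS + 0.05% casein + 0.5 mM IBMX; read-out cAMP.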

[1] = Physical stability of peptide analogues (Thioflavin T fibrillation); assay type: physicochemical; conditions: maximum ThT signal normalized between hAMY maximum and buffer background; 40° C., shaking, four days; pH 7 per table title
Method in brief: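 Maximum ThT emission at 480 nm, after LOESS smoothing, is given as percent of the span from buffer background to hAMY. Conditions: 50 mM buffer at pH 4 or 7, 4 μM dye, 40 °C, repeated shaking, readings every 10 min for four days.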

Sequence of hAM1 receptor (Q16602 23-461): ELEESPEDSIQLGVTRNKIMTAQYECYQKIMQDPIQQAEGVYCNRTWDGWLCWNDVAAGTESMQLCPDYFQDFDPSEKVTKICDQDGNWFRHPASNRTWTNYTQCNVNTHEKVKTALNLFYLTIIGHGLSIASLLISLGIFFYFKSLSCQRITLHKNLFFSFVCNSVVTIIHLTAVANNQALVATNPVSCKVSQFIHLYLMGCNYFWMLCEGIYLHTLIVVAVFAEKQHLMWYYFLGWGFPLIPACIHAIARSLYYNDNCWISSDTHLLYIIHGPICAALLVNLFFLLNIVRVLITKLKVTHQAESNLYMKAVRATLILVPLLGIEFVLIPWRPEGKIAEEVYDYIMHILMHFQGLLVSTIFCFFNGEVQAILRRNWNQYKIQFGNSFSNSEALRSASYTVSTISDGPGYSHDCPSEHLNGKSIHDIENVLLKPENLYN
Sequence of hAM1 receptor (O60895 43-175 partner): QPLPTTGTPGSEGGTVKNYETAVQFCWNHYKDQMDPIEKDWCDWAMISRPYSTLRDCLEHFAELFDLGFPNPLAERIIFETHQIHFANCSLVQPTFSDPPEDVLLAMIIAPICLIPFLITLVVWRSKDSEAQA

| pEC50 (hAMY3 receptor) | pEC50 (hAM1 receptor) | Max ThT signal (%) [1] [%] | Structure (SMILES) |
| --- | --- | --- | --- |
| 11.22 | < 5.30 | 27.550 | CC[C@H](C)[C@H](NC(=O)[C@H](CCC(N)=O)NC(=O)[C@H](Cc1c[nH]cn1)NC(=O)[C@H](C)NC(=O)[C@H](CC(C)C)NC(=O)[C@H](CCCNC(N)=O)NC(=O)[C@H](CCC(N)=O)NC(=O)[C@@H](NC(=O)[C@@H](NC(=O)[C@@H]1CSSC[C@H](NC(=O)[C@@H](N)CCCCN)C(=O)N[C@@H](CC(N)=O)C(=O)N[C@@H]([C@@H](C)O)C(=O)N[C@@H](C)C(=O)N[C@@H]([C@@H](C)O)C(=O)N1)[C@@H](C)O)C(C)C)C(=O)N[C@@H](Cc1ccc(O)cc1)C(=O)N[C@@H](CCC(N)=O)C(=O)N[C@@H](Cc1ccccc1)C(=O)N[C@H](C(=O)N[C@@H](CC(=O)O)C(=O)N[C@@H](CCCCN)C(=O)N[C@@H](CC(=O)O)C(=O)N[C@@H](CCCCN)C(=O)N[C@@H](CC(=O)O)C(=O)N[C@@H](CC(N)=O)C(=O)N[C@H](C(=O)N[C@@H](C)C(=O)N1CCC[C@H]1C(=O)N[C@@H](C)C(=O)N[C@H](C(=O)N[C@@H](CC(N)=O)C(=O)N[C@H](C(=O)NCC(=O)N[C@@H](CO)C(=O)N[C@@H](CC(N)=O)C(=O)NCC(=O)N1C[C@H](O)C[C@H]1C(N)=O)C(C)C)[C@@H](C)O)C(C)C)[C@@H](C)O [compound 252] (H-KCNTATCTVQ[Cit]LAHQIYQFTDKDKDNVAPATNVGSNG[Hyp]-NH2; disulfide 2-7; N-terminus assumed) |
| 11.40 | < 5.30 | 5.550 | CC[C@H](C)[C@H](NC(=O)[C@H](CCC(N)=O)NC(=O)[C@H](Cc1c[nH]cn1)NC(=O)[C@H](C)NC(=O)[C@H](CC(C)C)NC(=O)[C@H](Cc1c[nH]c2ccccc12)NC(=O)[C@H](CCC(N)=O)NC(=O)[C@@H](NC(=O)[C@@H](NC(=O)[C@@H]1CSSC[C@H](NC(=O)[C@@H](N)CCCCN)C(=O)N[C@@H](CC(N)=O)C(=O)N[C@@H]([C@@H](C)O)C(=O)N[C@@H](C)C(=O)N[C@@H]([C@@H](C)O)C(=O)N1)[C@@H](C)O)C(C)C)C(=O)N[C@@H](Cc1ccc(O)cc1)C(=O)N[C@@H](CCC(N)=O)C(=O)N[C@@H](Cc1ccccc1)C(=O)N[C@H](C(=O)N[C@@H](CCCCN)C(=O)N[C@@H](CC(=O)O)C(=O)N[C@@H](CCCCN)C(=O)N[C@@H](CC(=O)O)C(=O)N[C@@H](CC(N)=O)C(=O)N[C@H](C(=O)N[C@@H](C)C(=O)N1CCC[C@H]1C(=O)N1CCC[C@H]1C(=O)N[C@H](C(=O)N[C@@H](CC(N)=O)C(=O)N[C@H](C(=O)NCC(=O)N[C@@H](CO)C(=O)N[C@@H](CC(N)=O)C(=O)NCC(=O)N1C[C@H](O)C[C@H]1C(N)=O)C(C)C)[C@@H](C)O)C(C)C)[C@@H](C)O [compound 317] (H-KCNTATCTVQWLAHQIYQFTKDKDNVAPPTNVGSNG[Hyp]-NH2; disulfide 2-7; N-terminus assumed) |
| 10.62 | < 5.30 | 26.450 | CC[C@H](C)[C@H](NC(=O)[C@H](CC(N)=O)NC(=O)[C@@H](NC(=O)[C@H](CCCNC(=N)N)NC(=O)[C@@H]1CCCN1C(=O)[C@H](C)NC(=O)[C@@H](NC(=O)[C@H](CC(N)=O)NC(=O)[C@H](CC(=O)O)NC(=O)[C@H](CCCCN)NC(=O)[C@H](CC(=O)O)NC(=O)[C@H](CCCCN)NC(=O)[C@H](CC(=O)O)NC(=O)[C@@H](NC(=O)[C@H](Cc1ccccc1)NC(=O)[C@H](CCC(N)=O)NC(=O)[C@H](Cc1ccc(O)cc1)NC(=O)[C@@H](NC(=O)[C@H](CCC(N)=O)NC(=O)[C@H](Cc1c[nH]cn1)NC(=O)[C@H](C)NC(=O)[C@H](CC(C)C)NC(=O)[C@H](CCCNC(N)=O)NC(=O)[C@H](CCC(N)=O)NC(=O)[C@@H](NC(=O)[C@@H](NC(=O)[C@@H]1CSSC[C@H](NC(=O)CN)C(=O)N[C@@H](CCCNC(=N)N)C(=O)N[C@@H]([C@@H](C)O)C(=O)NCC(=O)N[C@@H]([C@@H](C)O)C(=O)N1)[C@@H](C)O)C(C)C)[C@@H](C)CC)[C@@H](C)O)C(C)C)[C@@H](C)O)C(=O)NCC(=O)N1CCC[C@H]1C(=O)N[C@@H](CCC(N)=O)C(=O)NCC(=O)N1C[C@H](O)C[C@H]1C(N)=O [compound 280] (H-GCRTGTCTVQ[Cit]LAHQIYQFTDKDKDNVAPRTNIGPQG[Hyp]-NH2; disulfide 2-7; N-terminus assumed) |
| 10.39 | < 5.30 | 2.750 | CC[C@H](C)[C@H](NC(=O)[C@H](CC(N)=O)NC(=O)[C@@H](NC(=O)[C@H](CCCNC(=N)N)NC(=O)[C@@H]1CCCN1C(=O)[C@H](C)NC(=O)[C@@H](NC(=O)[C@H](CC(N)=O)NC(=O)[C@H](CC(=O)O)NC(=O)[C@H](CCCCN)NC(=O)[C@H](CC(=O)O)NC(=O)[C@H](CCCCN)NC(=O)[C@H](CC(=O)O)NC(=O)[C@@H](NC(=O)[C@H](Cc1ccccc1)NC(=O)[C@H](CCC(N)=O)NC(=O)[C@H](Cc1ccc(O)cc1)NC(=O)[C@@H](NC(=O)[C@H](CCC(N)=O)NC(=O)[C@H](Cc1c[nH]cn1)NC(=O)[C@H](C)NC(=O)[C@H](CC(C)C)NC(=O)[C@H](Cc1c[nH]c2ccccc12)NC(=O)[C@H](CCC(N)=O)NC(=O)[C@@H](NC(=O)[C@@H](NC(=O)[C@@H]1CSSC[C@H](NC(=O)CN)C(=O)N[C@@H](CCCNC(=N)N)C(=O)N[C@@H]([C@@H](C)O)C(=O)NCC(=O)N[C@@H]([C@@H](C)O)C(=O)N1)[C@@H](C)O)C(C)C)[C@@H](C)CC)[C@@H](C)O)C(C)C)[C@@H](C)O)C(=O)NCC(=O)N1CCC[C@H]1C(=O)N[C@@H](CC(N)=O)C(=O)NCC(=O)N[C@@H](Cc1ccc(O)cc1)C(N)=O [compound 348] (H-GCRTGTCTVQWLAHQIYQFTDKDKDNVAPRTNIGPNGY-NH2; disulfide 2-7; N-terminus assumed) |
| 11.00 | < 5.30 | 1.200 | CC[C@H](C)[C@H](NC(=O)[C@H](CCC(N)=O)NC(=O)[C@H](Cc1c[nH]cn1)NC(=O)[C@H](C)NC(=O)[C@H](CC(C)C)NC(=O)[C@H](CCCNC(=N)N)NC(=O)[C@H](CCC(N)=O)NC(=O)[C@@H](NC(=O)[C@@H](NC(=O)[C@@H]1CSSC[C@H](NC(=O)[C@@H](N)CCCCN)C(=O)N[C@@H](CC(N)=O)C(=O)N[C@@H]([C@@H](C)O)C(=O)N[C@@H](C)C(=O)N[C@@H]([C@@H](C)O)C(=O)N1)[C@@H](C)O)C(C)C)C(=O)N[C@@H](Cc1ccc(O)cc1)C(=O)N[C@@H](CCC(N)=O)C(=O)N[C@@H](Cc1ccccc1)C(=O)N[C@H](C(=O)N[C@@H](CC(=O)O)C(=O)N[C@@H](CCCCN)C(=O)N[C@@H](C)C(=O)N[C@@H](CCCCN)C(=O)N[C@@H](CC(=O)O)C(=O)N[C@@H](CC(N)=O)C(=O)N[C@H](C(=O)N[C@@H](C)C(=O)N1CCC[C@H]1C(=O)N1CCC[C@H]1C(=O)N[C@H](C(=O)N[C@@H](CC(N)=O)C(=O)N[C@H](C(=O)NCC(=O)N[C@@H](CO)C(=O)N[C@@H](CC(N)=O)C(=O)NCC(=O)N1C[C@H](O)C[C@H]1C(N)=O)C(C)C)[C@@H](C)O)C(C)C)[C@@H](C)O [compound 43] (H-KCNTATCTVQRLAHQIYQFTDKAKDNVAPPTNVGSNG[Hyp]-NH2; disulfide 2-7; N-terminus assumed) |
| 10.33 | < 5.30 | 20.050 | CC[C@H](C)[C@H](NC(=O)[C@H](CCCCN)NC(=O)[C@@H](NC(=O)[C@H](CCCNC(=N)N)NC(=O)[C@@H]1CCCN1C(=O)[C@H](C)NC(=O)[C@@H](NC(=O)[C@H](CC(N)=O)NC(=O)[C@H](CC(=O)O)NC(=O)[C@H](CCCCN)NC(=O)[C@H](CC(=O)O)NC(=O)[C@H](CCCCN)NC(=O)[C@H](CC(=O)O)NC(=O)[C@@H](NC(=O)[C@H](Cc1ccccc1)NC(=O)[C@H](CCC(N)=O)NC(=O)[C@H](Cc1ccc(O)cc1)NC(=O)[C@@H](NC(=O)[C@H](CCC(N)=O)NC(=O)[C@H](Cc1c[nH]cn1)NC(=O)[C@H](C)NC(=O)[C@H](CC(C)C)NC(=O)[C@H](Cc1c[nH]c2ccccc12)NC(=O)[C@H](CCC(N)=O)NC(=O)[C@@H](NC(=O)[C@@H](NC(=O)[C@@H]1CSSC[C@H](NC(=O)CN)C(=O)N[C@@H](CCCNC(=N)N)C(=O)N[C@@H]([C@@H](C)O)C(=O)NCC(=O)N[C@@H]([C@@H](C)O)C(=O)N1)[C@@H](C)O)C(C)C)[C@@H](C)CC)[C@@H](C)O)C(C)C)[C@@H](C)O)C(=O)NCC(=O)N1CCC[C@H]1C(=O)N[C@@H](CC(N)=O)C(=O)NCC(=O)N1C[C@H](O)C[C@H]1C(N)=O [compound 339] (H-GCRTGTCTVQWLAHQIYQFTDKDKDNVAPRTKIGPNG[Hyp]-NH2; disulfide 2-7; N-terminus assumed) |
